Results from PMC8805257, “Molecular and functional characterization of a conserved odorant receptor from Aedes albopictus” (Parasites & Vectors, 2022).
pEC50: −log10 of the molar value.

Key:
Assay type in all cases: cell-based
[1] = target: T1, AalbOr11 (odorant receptor 11) (Aedes albopictus, UniProt A0ABM1ZVX3); experiment: two-electrode voltage clamp in Xenopus oocytes; current […] nA at […]
T1 construct: with AalbOrco
T1 sequence (A0ABM1ZVX3 1-420): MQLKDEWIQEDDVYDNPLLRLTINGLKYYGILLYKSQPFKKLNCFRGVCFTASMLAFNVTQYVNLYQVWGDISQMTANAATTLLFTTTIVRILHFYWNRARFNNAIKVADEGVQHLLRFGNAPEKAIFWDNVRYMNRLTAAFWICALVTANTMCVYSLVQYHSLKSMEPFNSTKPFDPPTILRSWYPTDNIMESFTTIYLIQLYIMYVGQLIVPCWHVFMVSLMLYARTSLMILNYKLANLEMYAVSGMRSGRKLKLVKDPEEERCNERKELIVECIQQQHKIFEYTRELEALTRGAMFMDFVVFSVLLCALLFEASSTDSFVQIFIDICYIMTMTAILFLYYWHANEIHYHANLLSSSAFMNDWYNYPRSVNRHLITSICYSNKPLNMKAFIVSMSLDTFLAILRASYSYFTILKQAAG
T1 sequence (W8NXX6 1-479 partner): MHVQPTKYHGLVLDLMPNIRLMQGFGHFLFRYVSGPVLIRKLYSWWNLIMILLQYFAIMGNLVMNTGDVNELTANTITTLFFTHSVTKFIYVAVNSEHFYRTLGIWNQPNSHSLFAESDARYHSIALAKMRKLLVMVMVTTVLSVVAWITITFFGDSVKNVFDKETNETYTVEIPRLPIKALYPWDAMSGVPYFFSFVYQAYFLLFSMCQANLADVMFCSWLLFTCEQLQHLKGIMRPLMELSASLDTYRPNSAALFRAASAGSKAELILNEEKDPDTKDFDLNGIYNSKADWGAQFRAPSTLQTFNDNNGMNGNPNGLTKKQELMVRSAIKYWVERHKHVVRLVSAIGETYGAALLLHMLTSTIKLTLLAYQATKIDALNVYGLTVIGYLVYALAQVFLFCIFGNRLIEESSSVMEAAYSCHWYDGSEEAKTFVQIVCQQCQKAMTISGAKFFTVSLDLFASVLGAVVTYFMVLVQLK

[2] = target: T1, AalbOr11 (odorant receptor 11); experiment: two-electrode voltage clamp in Xenopus oocytes, screen at […]
[3] = target: T1, AalbOr11 (odorant receptor 11); experiment: two-electrode voltage clamp in Xenopus oocytes co-expressing AalbOr11/AalbOrco, concentration-response
[4] = target: T1, AalbOr11 (odorant receptor 11); experiment: as above; remark: listed apart in the source

c1ccc2[nH]ccc2c1 [indole]
two-electrode voltage clamp in Xenopus oocytes; current >300 nA at 10^-4 M [1]: five aromatics 3-methylindole, 2-ethyltoluene, indole, acetophenone, and 2-ethylphenol

COC(=O)c1ccccc1C [methyl-2-methylbenzoate]
two-electrode voltage clamp in Xenopus oocytes, screen at 10^-4 M [2]: AalbOr11 was sensitive to human odor, such as indole, 3-methylindole, and methyl-2-methylbenzoate

CC1(C)C(=O)[C@]2(C)CC[C@H]1C2 [(−)-fenchone]
two-electrode voltage clamp in Xenopus oocytes; current >300 nA at 10^-4 M [1]: The seven strong ligands comprised two terpenes (+)-fenchone and (−)-fenchone

CC(=O)c1ccccc1 [acetophenone]
two-electrode voltage clamp in Xenopus oocytes; current >300 nA at 10^-4 M [1]: five aromatics 3-methylindole, 2-ethyltoluene, indole, acetophenone, and 2-ethylphenol

C=CCc1ccc(O)c(OC)c1 [eugenol]
two-electrode voltage clamp in Xenopus oocytes, screen at 10^-4 M [2]: except eugenol, which could activate AalbOr11 but could not activate AgOr11

CC(=O)c1cccs1 [2-acetylthiophene]
two-electrode voltage clamp in Xenopus oocytes co-expressing AalbOr11/AalbOrco, [3]: indole was replaced with 2-acetylthiophene to conduct concentration gradient assay

CC1(C)C(=O)[C@@]2(C)CC[C@@H]1C2 [(+)-fenchone]
pEC50 [4]: 3.86

CCc1ccccc1C [2-ethyltoluene]
pEC50 [4]: 4.21

Cc1c[nH]c2ccccc12 [3-methylindole]
two-electrode voltage clamp in Xenopus oocytes; current >300 nA at 10^-4 M [1]: five aromatics 3-methylindole, 2-ethyltoluene, indole, acetophenone, and 2-ethylphenol

CCc1ccccc1O [2-ethylphenol]
two-electrode voltage clamp in Xenopus oocytes; current >300 nA at 10^-4 M [1]: five aromatics 3-methylindole, 2-ethyltoluene, indole, acetophenone, and 2-ethylphenol
